Key:
[1] = tested on: transplanted tumor of mouse H22 liver cancer; assay: Transplanted tumor of mouse H22 liver cancer; conditions: for Tumor Volume (mm3) (d30): d 30; for Body Weight (g) (d1) / Body Weight (g) (d 7): mouse, in vivo
Experimental: The H22 cell strains cryopreserved in liquid nitrogen were resuscitated in Kunming mice. After 3 generations, the ascites of Kunming mice were taken and placed in a 50 ml centrifuge tube in which 10 ml of 0.9% normal saline was added, and then centrifuging was performed at 1000 rpm for 5 min at room temperature, and the obtained supernatant was removed. Then 10 ml of 0.9% normal saline was added to the tube to blow and mix well, and then the mixture was diluted to 5×10^6 live cells/ml with normal saline after counting. The tube was stored in ice water, and 75% ethanol was used to disinfect the skin under the right armpits of the mice. Each Kunming mouse was soon inoculated subcutaneously with 0.2 ml of the cells at the armpit of the right forelimb.
In the H22 liver cancer model, the mice inoculated with the tumor were randomly divided into groups with 10 mice in each group on the next day of inoculation. The groups included: a model control group, a positive drug cyclophosphamide control group (CTX, 26 mg/kg), isovaleryl spiramycin I groups with doses of 13, 26 and 52 mg/kg; isovaleryl spiramycin II groups with doses of 13, 26 and 52 mg/kg; isovaleryl spiramycin III groups with doses of 13, 26 and 52 mg/kg. Each group was continuously administered intragastrically for 7 days with a dose of 20 ml/kg.
The tumor-bearing mice were weighed and sacrificed the next day after the last administration. The subcutaneous tumors were dissected and weighed. The average tumor weight of each group is calculated, and the tumor inhibition rate is calculated.
Tumor inhibition rate=(1−T/C)×100%
T: average tumor weight of the drug-administered group; C: average tumor weight of the blank control group.

[2] = Spleen index of A549 lung cancer tumor-bearing mice; conditions: n = 6
[3] = tested on: transplanted tumor of human cervical cancer cell HeLa; assay: HeLa transplanted tumor in nude mice; conditions: for Tumor Volume (mm3) (d 1): d1
Experimental: HeLa cells in a logarithmic growth phase were taken and subjected to a trypan blue exclusion experiment showing that the cell viability was more than 95%, then the cells were subjected to trypsinization, centrifugation, and supernatant removal. Then cell concentration was adjusted to 1×10^7/ml with matrigel, then each nude mouse was inoculated subcutaneously with 0.2 ml of cells at its right armpit and recorded as the first day of inoculation. When the tumor grows to be greater than or equal to 100 mm^3, the mice were randomly divided into 11 groups with 6 mice in each group: a model group, a cyclophosphamide group, isovaleryl spiramycin I groups with doses of 25, 50 and 100 mg/kg, isovaleryl spiramycin II groups with doses of 25, 50 and 100 mg/kg, and isovaleryl spiramycin III groups with doses of 25, 50 and 100 mg/kg. Each group was continuously administered intragastrically for 30 days with a dose of 20 ml/kg. The mice were sacrificed the next day after drug withdrawal and the indicators were tested. The long diameter and short diameter of the tumor, and the body weight of each mouse were recorded every 3 days from drug administration to nude mouse sacrifice.
The body weight of the nude mice and the long diameter (a) and short diameter (b) of the transplanted tumor were measured every 3 days, and the tumor volume (v), relative tumor volume (RTV) and relative tumor proliferation rate (T/C) are calculated respectively according to the following formulas, wherein V=a×b^2/2; RTV=V/V0 (V0 is the tumor volume before administration, V is the tumor volume before sacrifice), and T/C (%)=treatment group RTV/model control group RTV×100%.
Each mouse was weighed and sacrificed. After the tumor was completely stripped off from the body of the mouse, the non-tumor tissues such as blood stains and fat were removed to weigh the tumor and calculate the tumor growth inhibition rate. The average tumor weight of each group of mice is used as an indicator of efficacy. Tumor growth inhibition rate (%)=(1−the average tumor weight of the treatment group/the average tumor weight of the model group)×100%.

[4] = HeLa, high dose (100 mg/kg in method) i.g. 30 days
[5] = HeLa, low dose (25 mg/kg in method) i.g. 30 days
[6] = HeLa, medium dose (50 mg/kg in method) i.g. 30 days

CCC(=O)O[C@@H]1CC(=O)O[C@H](C)C/C=C/C=C/[C@H](O[C@H]2CC[C@H](N(C)C)[C@@H](C)O2)[C@H](C)C[C@H](CC=O)[C@H](O[C@@H]2O[C@H](C)[C@@H](O[C@H]3C[C@@](C)(O)[C@@H](OC(=O)CC(C)C)[C@H](C)O3)[C@H](N(C)C)[C@H]2O)[C@H]1OC [Isovaleryl spiramycin III, isovaleryl spiramycin III]
growth of H22 liver cancer in mice ([1]; 13, 26 and 52 mg/kg i.g. 7 days): significantly inhibit
Relative Tumor Proliferation Rate (T/C) ([1]; dose 12.5 mg/kg): 69.68
Relative Tumor Volume (RTV) ([1]; dose 12.5 mg/kg): 6.92 ± 1.88
Tumor Volume (mm3) (d 1) ([1]; dose 12.5 mg/kg): 121.58 ± 13.44 mm3
Tumor Volume (mm3) (d30) ([1]; dose 12.5 mg/kg): 824.36 ± 143.90 mm3
Inhibition Rate (%) ([1]; dose 13 mg/kg): 33.55%
Tumor ([1]; dose 13 mg/kg): 1.01 ± 0.22 g
Relative Tumor Proliferation Rate (T/C) ([1]; dose 25 mg/kg): 56.90
Relative Tumor Volume (RTV) ([1]; dose 25 mg/kg): 5.65 ± 1.74
Tumor Volume (mm3) (d 1) ([1]; dose 25 mg/kg): 118.16 ± 21.72 mm3
Tumor Volume (mm3) (d30) ([1]; dose 25 mg/kg): 650.32 ± 171.23 mm3
Inhibition Rate (%) ([1]; dose 26 mg/kg): 44.08%
Tumor ([1]; dose 26 mg/kg): 0.85 ± 0.34 g
Relative Tumor Proliferation Rate (T/C) ([1]; dose 50 mg/kg): 43.45
Relative Tumor Volume (RTV) ([1]; dose 50 mg/kg): 4.31 ± 1.65
Tumor Volume (mm3) (d 1) ([1]; dose 50 mg/kg): 122.15 ± 49.44 mm3
Tumor Volume (mm3) (d30) ([1]; dose 50 mg/kg): 468.19 ± 110.04 mm3
Inhibition Rate (%) ([1]; dose 52 mg/kg): 51.97%
Tumor ([1]; dose 52 mg/kg): 0.73 ± 0.45 g
Body Weight (g) (d1) ([1]; 13 mg/kg): 23.67 ± 3.73 g
Body Weight (g) (d 7) ([1]; 13 mg/kg): 26.33 ± 1.43 g
Body Weight (g) (d1) ([1]; 26 mg/kg): 24.13 ± 1.46 g
Body Weight (g) (d 7) ([1]; 26 mg/kg): 27.47 ± 1.21 g
Body Weight (g) (d1) ([1]; 52 mg/kg): 24.32 ± 1.12 g
Body Weight (g) (d 7) ([1]; 52 mg/kg): 27.35 ± 0.80 g
Spleen Index (%) ([2]; dose 13 mg/kg): 0.32 ± 0.02%
Spleen Index (%) ([2]; dose 26 mg/kg): 0.33 ± 0.11%
Spleen Index (%) ([2]; dose 52 mg/kg): 0.35 ± 0.09%
Inhibition Rate (%) ([3]; HeLa nude mice, 12.5 mg/kg): 39.33%
Relative Tumor Proliferation Rate (T/C) ([3]; HeLa nude mice, 12.5 mg/kg): 62.92%
Relative Tumor Volume (RTV) ([3]; HeLa nude mice, 12.5 mg/kg): 1.43 ± 1.47
Tumor Weight ([3]; HeLa nude mice, 12.5 mg/kg): 1.17 ± 0.64 g
Tumor Volume (mm3) (d 1) ([3]; HeLa nude mice, 12.5 mg/kg): 123.36 ± 21.45 mm3
Tumor Volume (mm3) (d30) ([3]; HeLa nude mice, 12.5 mg/kg): 1281.92 ± 242.71 mm3
Inhibition Rate (%) ([3]; HeLa nude mice, 25 mg/kg): 52.41%
Relative Tumor Proliferation Rate (T/C) ([3]; HeLa nude mice, 25 mg/kg): 52.05%
Relative Tumor Volume (RTV) ([3]; HeLa nude mice, 25 mg/kg): 8.63 ± 3.37
Tumor Weight ([3]; HeLa nude mice, 25 mg/kg): 0.92 ± 0.49 g
Tumor Volume (mm3) (d 1) ([3]; HeLa nude mice, 25 mg/kg): 115.2 ± 27.18 mm3
Tumor Volume (mm3) (d30) ([3]; HeLa nude mice, 25 mg/kg): 1007.46 ± 481.36 mm3
Inhibition Rate (%) ([3]; HeLa nude mice, 50 mg/kg): 61.68%
Relative Tumor Proliferation Rate (T/C) ([3]; HeLa nude mice, 50 mg/kg): 39.33%
Relative Tumor Volume (RTV) ([3]; HeLa nude mice, 50 mg/kg): 6.52 ± 0.73
Tumor Weight ([3]; HeLa nude mice, 50 mg/kg): 0.75 ± 0.11 g
Tumor Volume (mm3) (d 1) ([3]; HeLa nude mice, 50 mg/kg): 113.35 ± 20.84 mm3
Tumor Volume (mm3) (d30) ([3]; HeLa nude mice, 50 mg/kg): 727.16 ± 46.92 mm3
Relative Tumor Proliferation Rate (T/C) [3, 4]: 61.68%
tumor growth inhibition rate [3, 4]: 61.68%
Relative Tumor Proliferation Rate (T/C) [3, 5]: 39.33%
tumor growth inhibition rate [3, 5]: 39.33%
tumor volume and relative tumor volume compared with the model group ([3]; HeLa, low, medium and high doses, P<0.05): significantly lower
Relative Tumor Proliferation Rate (T/C) [3, 6]: 52.41%
tumor growth inhibition rate [3, 6]: 52.41%
mouse weight compared with the model group ([3]; mouse, in vivo): no significant changes
Body Weight (g) (d1) ([3]; mouse, in vivo, 12.5 mg/kg): 21.30 ± 0.64 g
Body Weight (g) (d30) ([3]; mouse, in vivo, 12.5 mg/kg): 20.67 ± 0.45 g
Body Weight (g) (d1) ([3]; mouse, in vivo, 25 mg/kg): 20.87 ± 0.78 g
Body Weight (g) (d30) ([3]; mouse, in vivo, 25 mg/kg): 20.80 ± 0.55 g
Body Weight (g) (d1) ([3]; mouse, in vivo, 50 mg/kg): 21.09 ± 0.51 g
Body Weight (g) (d30) ([3]; mouse, in vivo, 50 mg/kg): 21.10 ± 0.52 g
